Data taken from patent US5360796A, “Imidazo[1,2-a]pyridinylalkyl phosphonic acid compounds for treatment of neurotoxic injury” (G. D. Searle & Co., priority 1991, dated 1994).

Key:
cGMP in cerebellum = experiment: Assay for Effect on cGMP Levels in Cerebellum; format: in vivo, mouse (Swiss-Webster)
Method: The purpose of this assay is to determine the extent of in vivo bioavailability and the potency as an NMDA antagonist of compound of the invention as compared to known NMDA antagonists, namely, 3(2-carboxypiperizine-4-yl)propyl-1-phosphonic acid (CPP) and cis-4-phosphonomethyl-2-piperidinecarboxylic acid (CGS 19755). Male Swiss-Webster mice (17-24 g were injected sub-cutaneously (s.c.) with compound of the invention and the known NMDA antagonist standards 30 minutes prior to sacrifice by focussed microwave irradiation. Groups consisted of 7-10 mice. Compounds of Ex. #7 was dissolved in isotonic saline and all compounds were administered in a volume of 0.2 ml per mouse. Cerebella samples were extracted in IN HCl. Hydrochloric acid in extracts of the cerebellum were freeze-dried for assay of cGMP with a commercial RIA kit (NEN). Statistics (Dunett's t-test) were performed as described previously [P. L. Wood et al., Neurochem., 19, 975-982 (1980)]. ED50 values were calculated from log-logit transformation of the dose-response data.

[1] = test system: tonic hindlimb extensor seizures; experiment: Anticonvulsant Assay (electroconvulsive shock); format: in vivo, mouse (CD-1); conditions: for Protected from ECS (% of Mice): 30 min prior to ECS
From the text: The screens were then slowly inverted. […] The current was held constant at 15 mA. […] There were 10 mice in each treatment group.

[2] = Motor impairment, inverted screen test
Method: Naive male CD-1 mice (20-30 grams body weight) from Charles River Laboratories, Portage Mich. served as subjects. The mice had ad libitum access to food and water prior to testing and were maintained on a 12 hour light/12 hour dark schedule with testing during the light portion of the cycle. The mice were tested for motor impairment by use of the inverted screen test approximately 5 minutes prior to anticonvulsant testing. […] Mice were placed on 13×13 cm pieces of #4 wire mesh screen which were mounted horizontally. The screens were then slowly inverted. […] PG-Tween is a 1:1 mixture of propylene glycol and Tween 80. […] There were 10 mice in each treatment group.

[3] = target: TCP (1-[1-(2-thienyl)cyclohexyl]piperidine) binding; experiment: TCP Modulation Assay; set-up: species or system rat; conditions: 2 nM tritiated TCP, 0.05 mM L-glutamate, rat brain SPM, pH 7.4, 25° C., 60 min; read-out: TCP Ki IC50
Method: The effect on the TCP (1-[1-(2-thienyl)cyclohexyl]piperidine) binding was measured in rat brain synaptic membranes (SPM) prepared as previously described [J. B. Monahah & J. Michel; J. Neurochem. […] Prior to their use in the binding assay, frozen SPM were thawed, diluted twenty fold with 50 mM Tris/acetate (pH 7.4 containing 0.04% (v/v) Triton X-100), incubated for 30 min. at 37° C. and centrifuged at 95,000 xg for 15 min. The Triton X-100 treated SPM were washed with 5 mM Tris/HCl, pH 7.4 and centrifuged a total of six times. […] The samples were filtered through glass fiber filters (Schleicher & Schuell #32) which have been pretreated with 0.05% (v/v) polyethylenimine, washed 4 times with 2 ml of ice-cold 5 mM Tris/HCl buffer, and then counted on a Beckman LS 5800 liquid scintillation counter with automatic corrections for quenching and counting efficiency. Inhibition of TCP binding was measured as a decrease in the binding in the presence of 0.05 mM L-glutamate. Non-specific binding was defined as the residual binding in the presence of […] phencyclidine.

O=C(O)c1cn2c(CP(=O)(O)O)cccc2n1 [Example 7, 5-(phosphonomethyl)imidazo[1,2-a]pyridine-2-carboxylic acid]
ED50 (cGMP in cerebellum; Mus musculus, sc, 0.5 h, 30 min prior to sacrifice, read-out: Decrease in cGMP ED50): 18.3 mg/kg
brain bioavailability (in words) (cGMP in cerebellum; by decrease of cGMP in mouse cerebellum, s.c.): brain bioavailable
potency relative to CPP (in words) (cGMP in cerebellum; s.c., cerebellar cGMP): in the same range of potency as the known NMDA antagonist CPP
Protected from ECS (% of Mice) ([1]; 10 mg/kg s.c.): 20%
Protected from ECS (% of Mice) ([1]; 32 mg/kg s.c.): 60%
Protected from ECS (% of Mice) ([1]; 56 mg/kg s.c.): 90%
Protected from ECS (% of Mice) ([1]; 100 mg/kg s.c.): 100%
ED50 ([1]; Mus musculus, sc, 0.5 h, s.c., doses in mg/kg, 95% CI 12.3-32.9, read-out: Protected from ECS ED50): 21.8 mg/kg
protection against tonic hindlimb extensor seizures (in words) ([1]; s.c.): protected against tonic hindlimb extensor seizures in a dose-dependent fashion
Exhibiting Motor Impairments (% of Mice) ([2]; 10 mg/kg s.c.): 30%
Exhibiting Motor Impairments (% of Mice) ([2]; 32 mg/kg s.c.): 50%
Exhibiting Motor Impairments (% of Mice) ([2]; 56 mg/kg s.c.): 70%
Exhibiting Motor Impairments (% of Mice) ([2]; 100 mg/kg s.c.): 90%
TD50 at 0.5 h ([2]; mouse, inverted screen test, sc): 24.6 mg/kg
impaired motor function (in words) ([2]; s.c.): impaired motor function in a similar dose range
Ki [3]: 3.2 µM
